Key:
[1] = test system: E. coli; assay: Bacteriocidal activity tests of colloidal disinfectant mix at low/intermediate/high FAC, E. coli; format: cell-based, Escherichia coli; conditions: 200-300 ppm FAC in viscous post-dip solutions; 30 seconds
Protocol: (§1) FIG. 4 is an illustration of a test for bacteriocidal activity.
(§2) Colloid-based disinfectant mixing procedures were established as follows. Step 1—Mix 2 g GA into 90 mL of water, leave with constant slow mixing for 1 hour. Step 2—Generate chlorine-based oxidant by salt brine electrolysis. Measure FAC concentration by the Hach DPD technique. Step 3—Dilute free chlorine solution from fresh electrolyzed brine solution. Final FAC concentration to be 200 ppm or 300 ppm. Step 4—Add 1 g of pure lanolin (with no additives), fill up the volume to 100 mL. Mix with slow stirring or on a rotary carousel for another hour. If needed, add Brilliant Blue (food-grade) dye during the last mixing. Ready. Store at ambient temperature for up to 48 hours or 72 hours.
(§3) Also, 400 ppm FAC in the disinfectant colloid mix causes 7-log inactivation of E. coli, and 200 ppm FAC is sufficient for 6-log inactivation of S. aures. Higher FAC concentrations can be useful in pre-dip solutions for teat wash. 200-300 ppm FAC, which holds for a long time upon storage, can be sufficient for post-dip solutions. Note that the tests were performed under controlled laboratory conditions. Field test data might support the data, or might indicate that higher FAC concentrations are necessary.

[2] = test system: S. aures; assay: Bacteriocidal activity tests of colloidal disinfectant mix at low/intermediate/high FAC, S. aureus; format: cell-based, Staphylococcus aureus; conditions: 200-300 ppm FAC in viscous post-dip solutions; 30 seconds
Protocol: as §1, §2, §3

[3] = test system: E. coli cells; conditions: 100 ppm hypochlorite applied for 1 min.; cited from earlier work

For `OCl` [sodium hypochlorite], the “log inactivation of Escherichia coli” value [1] is given as 6 log, the “log inactivation of Staphylococcus aureus” value [2] is given as 6 log and the “E. coli cells killed” value [3] is given as 10^6 cells.

Reference: patent US20160015036A1, “Methods and apparatuses related to pre- and post-dip teat treatment in milking facilities” (Aqua Access LLC, priority 2013, published 2016)
